According to ChEMBL document CHEMBL1201862, “PubChem BioAssay data set” (2004):
Where “and” joins values, the source holds several entries; their conditions need not be identical. Equal entries are not always repeated. Calls of active or inactive are those of the source.

Assays:
[1] = biological target: FAD-linked sulfhydryl oxidase ALR (Homo sapiens, UniProt P55789); experiment: inhibitors of human ALR sulfhydryl oxidase, dose response, biochemical, H2O2 detection, luminescence, cherry-pick (AID 493248)
Sequence of FAD-linked sulfhydryl oxidase ALR (P55789 whole entry, the tested form may be a part): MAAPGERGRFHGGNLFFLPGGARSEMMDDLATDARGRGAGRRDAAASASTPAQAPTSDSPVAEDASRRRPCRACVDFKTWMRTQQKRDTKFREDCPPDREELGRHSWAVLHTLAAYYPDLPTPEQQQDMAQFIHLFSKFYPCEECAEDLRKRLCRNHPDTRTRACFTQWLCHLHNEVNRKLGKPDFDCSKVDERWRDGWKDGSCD

[2] = ZM109 Env clade C HIV-1 fusion inhibitors, dose response, HeLa effector, CEM target cells, luciferase, cherry-pick (AID 652058); type: functional, cell-based
[3] = off-target signal loss in HeLa-CEM21 co-culture – HeLa F-luc CTL cells, cherry-picked, counter-screen for HIV-1 Env fusion inhibitor project, dose response (AID 652040); type: functional, cell-based;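 also: potency for signal decrease marking cytotoxic or nonspecific inhibition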
[4] = inhibitors of HIV Env-driven cell fusion, dose response, cherry-pick (AID 652057); type: functional, cell-based
[5] = inhibitors of clade B AD8 Env fusion, dose response, cell-based, cherry-pick (AID 652062); type: functional;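 also: luciferase signal from cell-cell fusion driven by HIV-1 clade B AD8 Env; potency is for inhibitors of fusion seen as a drop in luminescence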
Fatty acid synthase = Fatty acid synthase (Homo sapiens, UniProt P49327); experiment: FAS thioesterase domain inhibitors, dose response, biochemical, kinetic fluorescence intensity (AID 624326); type: functional;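 also: rate of fluorescence rise from hydrolysis of a fluorogenic O-methyl fluorescein ester substrate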
Sequence of Fatty acid synthase (P49327 whole entry, the tested form may be a part): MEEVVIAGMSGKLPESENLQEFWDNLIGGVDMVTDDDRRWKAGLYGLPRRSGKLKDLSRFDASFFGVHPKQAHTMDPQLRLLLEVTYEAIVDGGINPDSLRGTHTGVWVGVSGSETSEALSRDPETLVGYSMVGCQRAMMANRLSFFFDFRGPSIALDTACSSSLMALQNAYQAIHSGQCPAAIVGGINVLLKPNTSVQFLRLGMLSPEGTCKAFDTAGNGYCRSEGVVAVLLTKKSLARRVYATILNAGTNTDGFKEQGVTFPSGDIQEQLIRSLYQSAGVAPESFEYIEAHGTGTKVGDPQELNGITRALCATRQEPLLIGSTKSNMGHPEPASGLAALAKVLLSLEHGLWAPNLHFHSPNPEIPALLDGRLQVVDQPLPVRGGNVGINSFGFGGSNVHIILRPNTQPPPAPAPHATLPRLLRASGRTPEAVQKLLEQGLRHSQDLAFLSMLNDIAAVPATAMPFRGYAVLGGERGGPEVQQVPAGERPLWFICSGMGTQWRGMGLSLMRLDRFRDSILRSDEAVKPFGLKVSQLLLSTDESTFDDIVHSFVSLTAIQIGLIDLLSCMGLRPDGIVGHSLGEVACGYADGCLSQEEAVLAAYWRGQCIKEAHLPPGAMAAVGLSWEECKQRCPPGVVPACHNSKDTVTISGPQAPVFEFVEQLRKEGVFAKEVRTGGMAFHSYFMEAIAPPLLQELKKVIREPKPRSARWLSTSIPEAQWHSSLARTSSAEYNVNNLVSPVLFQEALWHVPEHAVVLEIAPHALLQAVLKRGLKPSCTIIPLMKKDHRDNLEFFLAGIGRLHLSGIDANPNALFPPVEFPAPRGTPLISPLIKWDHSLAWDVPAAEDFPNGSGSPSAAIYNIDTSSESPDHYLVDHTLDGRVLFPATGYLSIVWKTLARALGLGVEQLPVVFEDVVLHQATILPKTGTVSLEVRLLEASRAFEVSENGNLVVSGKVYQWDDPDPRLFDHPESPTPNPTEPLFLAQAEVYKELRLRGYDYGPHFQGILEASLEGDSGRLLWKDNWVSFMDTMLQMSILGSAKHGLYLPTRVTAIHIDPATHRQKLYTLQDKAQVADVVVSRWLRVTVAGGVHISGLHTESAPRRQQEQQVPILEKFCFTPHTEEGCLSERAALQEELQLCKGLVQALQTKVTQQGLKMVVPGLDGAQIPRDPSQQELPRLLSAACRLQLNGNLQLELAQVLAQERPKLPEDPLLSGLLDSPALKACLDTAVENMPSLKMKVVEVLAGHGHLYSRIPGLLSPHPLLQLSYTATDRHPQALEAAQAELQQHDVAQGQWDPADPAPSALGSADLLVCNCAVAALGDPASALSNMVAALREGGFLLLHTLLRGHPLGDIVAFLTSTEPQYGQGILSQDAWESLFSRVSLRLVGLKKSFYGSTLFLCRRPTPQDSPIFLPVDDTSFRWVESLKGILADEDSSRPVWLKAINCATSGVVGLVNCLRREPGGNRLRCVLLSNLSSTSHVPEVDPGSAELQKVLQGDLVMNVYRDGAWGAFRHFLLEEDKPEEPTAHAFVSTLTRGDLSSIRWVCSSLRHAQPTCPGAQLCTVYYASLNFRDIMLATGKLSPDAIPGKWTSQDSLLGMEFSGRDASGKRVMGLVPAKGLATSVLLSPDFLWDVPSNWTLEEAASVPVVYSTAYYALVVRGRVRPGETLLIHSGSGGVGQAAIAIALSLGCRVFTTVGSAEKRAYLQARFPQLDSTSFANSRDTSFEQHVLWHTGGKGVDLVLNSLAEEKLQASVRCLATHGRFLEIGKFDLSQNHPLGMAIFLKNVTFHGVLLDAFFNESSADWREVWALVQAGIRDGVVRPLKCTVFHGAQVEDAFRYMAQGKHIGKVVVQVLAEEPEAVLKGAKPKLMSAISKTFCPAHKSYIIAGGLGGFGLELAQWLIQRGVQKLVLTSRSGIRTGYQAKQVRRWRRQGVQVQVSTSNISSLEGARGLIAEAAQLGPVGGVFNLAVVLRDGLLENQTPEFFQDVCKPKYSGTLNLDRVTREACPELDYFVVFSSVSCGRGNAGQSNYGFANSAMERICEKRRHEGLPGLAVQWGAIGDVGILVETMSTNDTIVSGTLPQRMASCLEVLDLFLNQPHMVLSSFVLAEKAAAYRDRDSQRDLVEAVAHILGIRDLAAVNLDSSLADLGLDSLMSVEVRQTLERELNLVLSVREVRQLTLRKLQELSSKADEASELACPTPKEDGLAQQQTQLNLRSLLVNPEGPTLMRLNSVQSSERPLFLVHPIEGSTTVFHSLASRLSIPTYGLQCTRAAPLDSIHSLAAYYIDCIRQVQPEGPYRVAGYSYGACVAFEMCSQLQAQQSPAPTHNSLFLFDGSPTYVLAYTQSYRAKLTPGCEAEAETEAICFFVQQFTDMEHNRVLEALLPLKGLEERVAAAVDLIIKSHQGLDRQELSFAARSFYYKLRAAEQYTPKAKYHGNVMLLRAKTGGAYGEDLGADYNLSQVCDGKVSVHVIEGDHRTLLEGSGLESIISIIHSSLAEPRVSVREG

[6] = biological target: T1, DNA repair protein RAD52 homolog (Homo sapiens, UniProt P43351); type: functional, biochemical
T1 sequence (P43351 whole entry): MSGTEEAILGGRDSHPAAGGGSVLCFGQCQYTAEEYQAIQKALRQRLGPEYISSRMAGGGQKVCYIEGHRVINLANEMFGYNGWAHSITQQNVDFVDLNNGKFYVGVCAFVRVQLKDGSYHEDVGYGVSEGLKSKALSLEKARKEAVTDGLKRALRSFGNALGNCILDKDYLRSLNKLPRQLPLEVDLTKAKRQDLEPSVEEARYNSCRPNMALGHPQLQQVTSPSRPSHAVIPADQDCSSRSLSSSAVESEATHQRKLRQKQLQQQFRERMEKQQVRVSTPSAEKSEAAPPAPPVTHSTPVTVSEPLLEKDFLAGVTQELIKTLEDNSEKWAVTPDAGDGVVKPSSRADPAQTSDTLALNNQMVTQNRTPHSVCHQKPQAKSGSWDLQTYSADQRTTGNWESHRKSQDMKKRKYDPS

[7] = biological target: T2, Heat shock factor protein 1 (Mus musculus, UniProt P38532); experiment: HSF1 potentiators in luciferase reporter cells, confirmation, cell-based, NIH3T3, luminescence, dose retest (AID 435004); type: functional;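 also: stress induced by proteasome inhibitor MG132 added 30 min after compound; luciferase reporter driven by HSF1 response element in NIH3T3 cells; actives raise luminescence as potentiators of the MG132 stress response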
T2 sequence (P38532 whole entry): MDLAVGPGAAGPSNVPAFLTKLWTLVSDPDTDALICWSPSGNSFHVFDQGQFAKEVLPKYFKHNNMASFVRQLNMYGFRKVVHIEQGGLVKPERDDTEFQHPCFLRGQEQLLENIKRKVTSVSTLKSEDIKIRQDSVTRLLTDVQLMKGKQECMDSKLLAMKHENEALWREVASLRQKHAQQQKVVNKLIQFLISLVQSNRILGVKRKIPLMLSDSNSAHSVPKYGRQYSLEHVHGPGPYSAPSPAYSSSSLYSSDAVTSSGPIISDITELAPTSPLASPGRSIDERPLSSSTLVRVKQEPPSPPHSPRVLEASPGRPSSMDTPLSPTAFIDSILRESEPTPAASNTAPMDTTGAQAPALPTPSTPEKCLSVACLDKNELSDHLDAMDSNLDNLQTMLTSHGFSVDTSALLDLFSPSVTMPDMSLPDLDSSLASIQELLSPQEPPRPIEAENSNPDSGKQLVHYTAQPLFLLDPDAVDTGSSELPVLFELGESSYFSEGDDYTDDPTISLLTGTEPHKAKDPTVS

[8] = biological target: Induced myeloid leukemia cell differentiation protein Mcl-1 (Homo sapiens, UniProt Q07820); type: functional
Sequence of Induced myeloid leukemia cell differentiation protein Mcl-1 (Q07820 whole entry): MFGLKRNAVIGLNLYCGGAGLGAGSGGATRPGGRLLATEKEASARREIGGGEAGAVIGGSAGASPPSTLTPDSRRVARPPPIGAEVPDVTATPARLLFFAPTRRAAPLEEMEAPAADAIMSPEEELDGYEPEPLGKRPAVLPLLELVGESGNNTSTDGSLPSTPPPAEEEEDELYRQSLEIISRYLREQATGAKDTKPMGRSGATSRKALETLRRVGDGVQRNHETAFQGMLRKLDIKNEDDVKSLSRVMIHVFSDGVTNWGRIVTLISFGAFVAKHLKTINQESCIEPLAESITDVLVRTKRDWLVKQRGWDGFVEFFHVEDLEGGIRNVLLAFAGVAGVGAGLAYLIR

Streptococcus = experiment: Group A Streptococcus viability loss, dose response, counter-screen for streptokinase expression inhibitor project, luminescence, BacTiterGlo (AID 1915); type: functional, organism-based;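 also: potency for reduction of bacterial viability or growth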
[9] = tested on: Streptococcus sp. 'group A'; experiment: growth inhibition of control SK(-) GAS strain, dose response, counter-screen for streptokinase expression inhibitor project, luminescence, kanamycin, BacTiterGlo, confirmation (AID 1900); type: functional, organism-based
Streptokinase A = biological target: T3, Streptokinase A (Streptococcus pyogenes serotype M1, UniProt P10520); experiment: S. pyogenes streptokinase expression inhibitors, potency, dose response, plasminogen activation absorbance, OD405 (AID 1914); type: functional, Streptococcus pyogenes M1 GAS;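 also: secreted streptokinase activity via plasminogen activation per viability signal from cell pellet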
T3 sequence (P10520 whole entry): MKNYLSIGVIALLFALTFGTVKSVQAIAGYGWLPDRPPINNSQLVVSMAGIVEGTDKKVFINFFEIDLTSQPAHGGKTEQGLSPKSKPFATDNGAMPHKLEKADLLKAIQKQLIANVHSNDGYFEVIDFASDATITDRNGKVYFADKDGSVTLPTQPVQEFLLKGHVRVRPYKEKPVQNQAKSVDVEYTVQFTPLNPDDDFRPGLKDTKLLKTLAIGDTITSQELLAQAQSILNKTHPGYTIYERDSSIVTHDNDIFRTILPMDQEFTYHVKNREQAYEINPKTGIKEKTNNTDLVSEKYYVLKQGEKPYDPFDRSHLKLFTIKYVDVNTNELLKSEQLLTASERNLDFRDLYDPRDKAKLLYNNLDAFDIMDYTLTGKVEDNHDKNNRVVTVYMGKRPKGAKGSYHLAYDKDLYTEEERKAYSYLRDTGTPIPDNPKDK

[10] = Shn3 3'UTR reporter inhibitors, dose response, cell-based, Clone20 osteoblasts, firefly luciferase, cherry-picked (AID 624132); type: functional;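 also: firefly luciferase luminescence from reporter carrying the Shn3 3'UTR in osteoblasts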
Vero = experiment: cells; type: functional; conditions: Chlorocebus sabaeus
Cytochrome P450 2C9 = Cytochrome P450 2C9 (Homo sapiens, UniProt P11712)
Sequence of Cytochrome P450 2C9 (P11712 whole entry): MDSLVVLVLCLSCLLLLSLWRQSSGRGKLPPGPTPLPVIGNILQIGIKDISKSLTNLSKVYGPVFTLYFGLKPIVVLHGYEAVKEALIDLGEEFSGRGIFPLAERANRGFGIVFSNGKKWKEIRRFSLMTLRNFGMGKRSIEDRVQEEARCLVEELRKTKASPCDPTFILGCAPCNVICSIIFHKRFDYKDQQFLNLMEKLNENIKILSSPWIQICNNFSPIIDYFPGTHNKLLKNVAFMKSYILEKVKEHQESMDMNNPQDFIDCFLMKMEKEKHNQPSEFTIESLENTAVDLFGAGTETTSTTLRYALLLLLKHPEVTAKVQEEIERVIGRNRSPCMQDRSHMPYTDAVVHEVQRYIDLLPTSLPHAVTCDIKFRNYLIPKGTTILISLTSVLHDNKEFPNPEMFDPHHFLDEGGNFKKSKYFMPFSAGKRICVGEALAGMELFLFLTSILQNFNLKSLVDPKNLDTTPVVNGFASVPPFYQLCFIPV

Cytochrome P450 2C19 = Cytochrome P450 2C19 (Homo sapiens, UniProt P33261); experiment: Cytochrome panel assay with activity outcomes. Panel member name: p450-cyp2c19 Compounds with AC50 equal or less than 10 uM are considered active; type: functional; conditions: read-out: AC50
Sequence of Cytochrome P450 2C19 (P33261 whole entry): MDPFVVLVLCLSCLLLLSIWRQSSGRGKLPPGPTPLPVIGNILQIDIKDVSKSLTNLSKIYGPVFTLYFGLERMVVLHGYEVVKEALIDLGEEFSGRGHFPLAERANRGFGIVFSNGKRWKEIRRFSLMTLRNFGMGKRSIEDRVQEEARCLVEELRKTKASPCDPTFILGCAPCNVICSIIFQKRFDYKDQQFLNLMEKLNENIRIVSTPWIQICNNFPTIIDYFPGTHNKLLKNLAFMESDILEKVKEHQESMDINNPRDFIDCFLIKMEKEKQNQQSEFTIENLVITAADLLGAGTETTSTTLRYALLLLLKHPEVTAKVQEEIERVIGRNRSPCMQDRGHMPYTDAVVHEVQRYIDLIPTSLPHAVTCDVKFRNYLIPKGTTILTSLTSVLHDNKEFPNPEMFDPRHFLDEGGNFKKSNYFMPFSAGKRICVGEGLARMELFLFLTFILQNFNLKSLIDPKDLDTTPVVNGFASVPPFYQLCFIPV

Cytochrome P450 1A2 = biological target: T4, Cytochrome P450 1A2 (Homo sapiens, UniProt P05177);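 also: PubChem cytochrome P450 panel assay, CYP1A2 panel member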
T4 sequence (P05177 whole entry): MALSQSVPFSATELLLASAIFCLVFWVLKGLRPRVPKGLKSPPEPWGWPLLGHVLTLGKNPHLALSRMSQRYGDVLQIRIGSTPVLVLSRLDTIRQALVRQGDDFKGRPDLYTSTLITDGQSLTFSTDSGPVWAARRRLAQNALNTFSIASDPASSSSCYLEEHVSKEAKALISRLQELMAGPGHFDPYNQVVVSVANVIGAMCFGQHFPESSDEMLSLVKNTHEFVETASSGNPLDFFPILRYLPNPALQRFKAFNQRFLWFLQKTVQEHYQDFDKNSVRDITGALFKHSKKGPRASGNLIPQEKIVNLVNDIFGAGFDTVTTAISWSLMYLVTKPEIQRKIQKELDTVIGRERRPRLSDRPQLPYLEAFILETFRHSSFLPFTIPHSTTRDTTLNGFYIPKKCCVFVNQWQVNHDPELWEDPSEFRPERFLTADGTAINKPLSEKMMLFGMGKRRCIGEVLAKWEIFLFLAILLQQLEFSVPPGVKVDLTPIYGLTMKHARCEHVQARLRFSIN

[11] = Luminescence Cell-Based Dose Retest to Confirm Inhibitors of Cancer Stem Cells. [Related pubchem assays (depositor defined):AID2717, AID2721]; type: functional; conditions: Homo sapiens
Cytochrome P450 2D6 = Cytochrome P450 2D6 (Homo sapiens, UniProt P10635);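 also: CYP2D6 member of a cytochrome P450 panel assay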
Sequence of Cytochrome P450 2D6 (P10635 whole entry): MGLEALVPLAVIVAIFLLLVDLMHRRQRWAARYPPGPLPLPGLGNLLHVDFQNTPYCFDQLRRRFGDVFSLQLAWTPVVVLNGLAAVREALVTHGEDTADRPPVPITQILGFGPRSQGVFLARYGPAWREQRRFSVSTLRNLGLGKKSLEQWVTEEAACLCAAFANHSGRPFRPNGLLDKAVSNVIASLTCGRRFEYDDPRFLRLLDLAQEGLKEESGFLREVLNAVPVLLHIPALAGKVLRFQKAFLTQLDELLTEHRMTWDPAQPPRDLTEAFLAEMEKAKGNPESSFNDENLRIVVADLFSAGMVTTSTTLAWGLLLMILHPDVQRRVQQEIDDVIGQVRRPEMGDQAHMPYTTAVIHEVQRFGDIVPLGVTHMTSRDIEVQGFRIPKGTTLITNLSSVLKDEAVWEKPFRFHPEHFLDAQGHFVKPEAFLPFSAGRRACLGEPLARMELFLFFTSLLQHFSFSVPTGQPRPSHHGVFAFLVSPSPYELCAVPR

H9c2 = experiment: cells; type: functional, cell-based; conditions: Rattus norvegicus, H9c2, Myocardium;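 also: confirmatory concentration-response retest of ultra-high-throughput screening hits for modulation of myocardial damage; cell death induced by hydrogen peroxide oxidative stress; compound pretreatment for 60 min then peroxide exposure for 2 h; potency is for protecting the cells against peroxide damage rather than for killing them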
Cytochrome P450 3A4 = Cytochrome P450 3A4 (Homo sapiens, UniProt P08684);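 also: CYP3A4 tested as one member of a cytochrome P450 panel screen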
Sequence of Cytochrome P450 3A4 (P08684 whole entry): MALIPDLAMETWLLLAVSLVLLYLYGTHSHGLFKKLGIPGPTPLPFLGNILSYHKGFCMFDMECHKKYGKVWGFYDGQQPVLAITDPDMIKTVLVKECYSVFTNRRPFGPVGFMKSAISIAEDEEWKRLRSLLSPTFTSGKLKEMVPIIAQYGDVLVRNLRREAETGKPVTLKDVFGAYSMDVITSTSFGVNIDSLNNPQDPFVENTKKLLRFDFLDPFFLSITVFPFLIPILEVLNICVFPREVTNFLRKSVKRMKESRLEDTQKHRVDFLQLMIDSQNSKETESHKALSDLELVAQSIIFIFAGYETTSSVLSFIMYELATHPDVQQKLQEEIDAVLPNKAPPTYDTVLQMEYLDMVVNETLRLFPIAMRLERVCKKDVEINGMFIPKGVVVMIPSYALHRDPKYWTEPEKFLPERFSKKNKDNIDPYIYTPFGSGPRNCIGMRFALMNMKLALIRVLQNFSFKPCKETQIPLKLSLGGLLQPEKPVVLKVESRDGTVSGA

COc1cccc(NC(=O)NNC(=O)CCc2ccc(O)c(O)c2)c1
AC50 [1]: 3.12 µM (active)

Cn1c(C(=O)NCCCN2CCN(c3ccccc3F)CC2)cc2c(O)nc3ccccc3c21
AC50 [2]: 10.3 µM (active) | AC50 [3]: 24.5 µM (active) | AC50 [4]: 2.82 µM (active) | AC50 [5]: 8.93 µM (active)

O=C(Nc1cc(Cl)cc(Cl)c1)C(c1ccccc1)N1CCCCC1 (stereo not drawn)
AC50 [2]: 8.47 µM (active) | AC50 [3]: 7.36 µM (active) | AC50 [4]: 3.35 µM (active)

C1=C(c2ccco2)N2CCN=C2S1
AC50 [1]: 2.33 µM (active)

COC(=O)Cc1ccc(O)c(N)c1
AC50 [1]: 21.6 µM (active)

CCN(CC(=O)NCc1cccs1)S(=O)(=O)c1ccc([N+](=O)[O-])cc1
IC50 (Fatty acid synthase): 17.7 µM (active)

C[C@@H]1NC(=O)[C@H](CCCN=C(N)N)NC(=O)c2cc([N+](=O)[O-])cc(I)c2NCCC[C@@H](C(N)=O)NC1=O
AC50 [6]: 12.3 µM (active)

Sc1[nH]cnc2c3cc(Cl)ccc3nc1-2
AC50 [3]: 2.35 µM (active) | AC50 [4]: 3.37 µM (active)

COc1cc(COCC(O)CN2CCN(CCN3C(=O)c4cccc5cccc(c45)C3=O)CC2)cc(OC)c1OC (stereo not drawn)
EC50 [7]: 59.2 µM (active) | AC50 [6]: 3.54 µM (active)

O=C(O)CCc1ccc(-c2ccccc2)n1NC(=O)c1sc2ccccc2c1Cl
AC50 [1]: 1.72 µM (active)

Cc1ccc(/C=C2\SC(=S)N(Cc3ccccc3)C2=O)o1
IC50 [8]: 3.76 µM (not active)

O=C(Nc1ccc2[nH]c(-c3ccc4[nH]cnc4c3)nc2c1)c1cccs1
EC50 (Streptococcus): 48.4 µM (inconclusive) | EC50 [9]: > 150 µM (not active) | IC50 [8]: 7.21 µM (active) | EC50 (Streptokinase A): > 150 µM (not active)

COc1ccc(C2N(S(=O)(=O)c3ccc(C)cc3)CCN2S(=O)(=O)c2ccc(C)cc2)cc1
AC50 [2]: 0.715 µM (active) | AC50 [3]: 6.47 µM (active) | AC50 [4]: 3.05 µM (active) | AC50 [5]: 4.68 µM (active)

CCOc1ccc(NC(=O)N(CCN2CCOCC2)Cc2ccc3c(c2)CCCN3CC)cc1
IC50 [8]: 0.852 µM (active)

CCC(C)[C@H]1CN=C(S)N1CCc1cc(C(F)(F)F)cc(C(F)(F)F)c1 (stereo partly drawn)
AC50 [10]: 21.6 µM (active)

COc1ccc(C2CC(c3cccc(F)c3)=NN2c2ccc(S(N)(=O)=O)cc2)cc1 (stereo not drawn)
CC50 (Vero): > 25 µM (active)

COc1ccc(CCNC(=O)CCC(=O)N2CCOc3ccc(Cl)cc32)cc1OC
AC50 [10]: > 70 µM (inactive)

Cc1cc(C(=O)OCC(=O)NCCCN2CCCC2=O)c2ccccc2n1
AC50 (Cytochrome P450 2C9): inconclusive | AC50 (Cytochrome P450 2C19): 35.5 µM (inconclusive) | AC50 (Cytochrome P450 1A2): 14.1 µM (inconclusive)

O=C(O)c1ccc(C=C(c2nc3ccccc3s2)c2nc3ccccc3s2)cc1
AC50 [11]: 4.53 µM (active) | CC50 (Vero): > 25 µM (active)

Cc1nn(C(=O)CN2C(=O)c3ccccc3C2=O)c(C)c1Br
AC50 (Cytochrome P450 2C9): inconclusive | AC50 (Cytochrome P450 2C19): 4.47 µM (inconclusive) | AC50 (Cytochrome P450 2D6): 7.08 µM (inconclusive)

Cc1ccc(-c2nnn(CC(=O)N(CC3CCCO3)C(C(=O)NC3CCCCC3)c3ccc(F)cc3)n2)o1 (stereo not drawn)
AC50 [2]: 2.45 µM (active) | AC50 [3]: 1.27 µM (active) | AC50 [4]: 0.79 µM (active) | AC50 [5]: 2.56 µM (active)

CN(C)CCNC(=O)c1cccc(-c2cnc3c(NC=O)cc(-c4cc(F)c(F)c(F)c4)cn23)c1
AC50 [6]: 7.21 µM (active)

Nc1c(C(=O)Nc2ccc(Br)cc2)sc2nc(N3CCOCC3)c3c(c12)CCCC3
CC50 (Vero): > 25 µM (active)

O=C(NCC(F)(F)F)[C@@H]1c2ccccc2C(=O)N(CC23CC4CC(CC(C4)C2)C3)[C@H]1c1ccc(CO)cc1
AC50 [4]: 0.304 µM (active) | AC50 [5]: 2.43 µM (active)

CN1CC[C@@H]2CN[C@H](c3ccccc3Br)C[C@@H]21
AC50 [6]: 4.58 µM (active)

CC(C)CC#Cc1ccc2c(c1)O[C@@H](CN(C)S(=O)(=O)c1ccc(F)cc1)[C@@H](C)CN([C@H](C)CO)S2(=O)=O
AC50 [2]: 10.1 µM (active) | AC50 [4]: 19.6 µM (active) | AC50 [5]: 10.2 µM (active)

C[N+](C)(C)CC(=O)N/N=C/c1c2ccccc2cc2ccccc12
AC50 [6]: 4.16 µM (active)

Oc1cccc2c(O)nccc12
IC50 (H9c2): 31.3 µM (inactive) | AC50 (Cytochrome P450 2C9): inconclusive | AC50 (Cytochrome P450 1A2): 15.8 µM (inconclusive) | AC50 (Cytochrome P450 3A4): 25.1 µM (inconclusive)

O=S(=O)(c1cccc2c(Cl)cccc12)N1CCCNCC1
AC50 (Cytochrome P450 2C9): inconclusive | AC50 (Cytochrome P450 1A2): 15.8 µM (inconclusive) and 31.6 µM (inconclusive) | AC50 (Cytochrome P450 2D6): 39.8 µM (inconclusive) and 25.1 µM (inconclusive)
